Measurements taken from patent US20240400604A1, “NUCLEOSIDE TRIPHOSPHATE PHOTOAFFINITY PROBE, METHOD FOR PREPARING SAME, AND APPLICATIONS THEREOF” (SHANDONG UNIVERSITY, priority 2023, published 2024).
Each block holds one molecule with its values, some of them ahead of it.

Columns and labels:
[1] = tested on: ATP-binding proteins in HEK 293T cell lysates; assay: In-gel fluorescence imaging of HEK 293T cell lysates labeled with the ATP-N probe; conditions: 10 μM ATP-N probe, FIG. 23c
[2] = tested on: GTP-binding proteins in HEK 293T cell lysates; assay: In-gel fluorescence imaging of HEK 293T cell lysate labeled with the GTP probes; conditions: competitor incubated on ice 10 minutes before probe; 50 μM GTP-O probe (FIG. 11)
Method: Appropriate amount cells were incubated on ice for 30 min in 1% lysis buffer (1% Triton X-100, 50 mM HEPES (pH 7.4), 150 mM NaCl, supplemented with phosphatase inhibitor A, phosphatase inhibitor B, and protease inhibitor right before use) at 5-10 times the cell volume. Vortexing for 5 seconds every 10 minutes. The cell lysates were centrifuged at 12,000 rpm at 4° C. for 30 min, and the supernatants were passed through an Amersham NAP-5 column to remove endogenous nucleosides. The proteins were quantified using a Bradford protein assay kit. Approximately 100 μg protein was diluted with 0.1% lysis buffer (0.1% Triton X-100, 50 mM HEPES, 150 mM sodium chloride). To the solution was added 1 mM magnesium chloride, the GTP probe and competitors to designated concentrations. The final volume for the reaction was 100 μL and the final protein concentration was […]. After incubated on ice, the solution was irradiated with 365-nm UV light for 30 min. To the solution were added freshly prepared tris-(2-carboxyethyl)phosphine (TCEP) until its concentration reached 1 mM, and a CuAAC reaction mixture to reach a final concentration of 1 mM CuSO4, 0.1 mM tris[(1-benzyl-1H-1,2,3-triazol-4-yl)methyl]amine (TBTA), and 0.1 mM rhodamine β-PEG3-azide. The mixture was incubated at room temperature for 2 hrs and then precipitated in a solution of chloroform: methanol: water (4:3:1, v/v). After washing with cold methanol and air dried, the protein pellet was dissolved in 30 μL 4% SDS buffer (4% SDS, 50 mM HEPES (pH 7.4), 150 mM NaCl, 50 mM Trolamine). The protein concentration was determined using a BCA protein assay kit. A solution of approximately 20 μg proteins was added 4×loading buffer (0.25M Trometamol, pH=6.8, 4% SDS, 40% Glycerol, 0.02% bromophenol blue, add 200 μL 2-Mercaptoethanol to 800 μL buffer right before use), boiled at 95° C. for 5 min and loaded onto an SDS-PAGE gel (4% stacking gel, 10% separating gel). Then perform SDS-PAGE separation at a constant voltage of 90 V for about 110 minutes. At the end of electrophoresis, cut the separation gel and imaged with an Amersham Imager 600 (GE Healthcare) at 520 nm. The gel was then stained with Coomassie Brilliant Blue staining solution (0.1% Coomassie brilliant blue, 10% acetic acid, 50% methanol) for 30 min and destained with destaining solution (10% acetic acid, 30% methanol) to remove background color.

[3] = biological target: T1, ACTR2 (Homo sapiens, UniProt P61160); assay: EHT 1864 competitive GTP-N probe labeling of HEK 293T cell lysates, LC-MS/MS; format: binding; conditions: GTP-N probe 20 μM; EHT 1864 20, 40, 100, 200 μM
T1 construct: endogenous in cells; host or cells: HEK 293T cell lysate
Method: (§1) Using the On-Beads digestion method, the GTP-N probe was used for protein labeling of HEK 293T cell lysates. For the competition experiments, a GTP-competitive inhibitor EHT 1864 was added before probe labeling to inhibit probe binding with targeted GTP-binding proteins. The final concentration of the probe was 20 μM, and EHT 1864 was used at concentrations of 20 μM, 40 μM, 100 μM, and 200 μM, respectively. The inhibitor was pre-incubated with cell lysates on ice for 10 minutes, followed by the GTP-N probe labeling, sample preparation, and LC-MS/MS analysis, same as in Section 1.3 of Example 3.

[4] = biological target: T2, ACTR3 (Homo sapiens, UniProt P61158); assay: as above; format: binding; conditions: GTP-N probe 20 μM; EHT 1864 20, 40, 100, 200 μM
T2 construct: the GTP-N probe was used for protein labeling of HEK 293T cell lysates; endogenous in cells; host or cells: HEK 293T cell lysate
Method: as §1

[5] = biological target: T3, PLCG1 (Homo sapiens, UniProt P19174); assay: as above; format: binding; conditions: GTP-N probe 20 μM; EHT 1864 20, 40, 100, 200 μM
T3 construct: the GTP-N probe was used for protein labeling of HEK 293T cell lysates; endogenous in cells; host or cells: HEK 293T cell lysate
T3 sequence (P19174 1-1290): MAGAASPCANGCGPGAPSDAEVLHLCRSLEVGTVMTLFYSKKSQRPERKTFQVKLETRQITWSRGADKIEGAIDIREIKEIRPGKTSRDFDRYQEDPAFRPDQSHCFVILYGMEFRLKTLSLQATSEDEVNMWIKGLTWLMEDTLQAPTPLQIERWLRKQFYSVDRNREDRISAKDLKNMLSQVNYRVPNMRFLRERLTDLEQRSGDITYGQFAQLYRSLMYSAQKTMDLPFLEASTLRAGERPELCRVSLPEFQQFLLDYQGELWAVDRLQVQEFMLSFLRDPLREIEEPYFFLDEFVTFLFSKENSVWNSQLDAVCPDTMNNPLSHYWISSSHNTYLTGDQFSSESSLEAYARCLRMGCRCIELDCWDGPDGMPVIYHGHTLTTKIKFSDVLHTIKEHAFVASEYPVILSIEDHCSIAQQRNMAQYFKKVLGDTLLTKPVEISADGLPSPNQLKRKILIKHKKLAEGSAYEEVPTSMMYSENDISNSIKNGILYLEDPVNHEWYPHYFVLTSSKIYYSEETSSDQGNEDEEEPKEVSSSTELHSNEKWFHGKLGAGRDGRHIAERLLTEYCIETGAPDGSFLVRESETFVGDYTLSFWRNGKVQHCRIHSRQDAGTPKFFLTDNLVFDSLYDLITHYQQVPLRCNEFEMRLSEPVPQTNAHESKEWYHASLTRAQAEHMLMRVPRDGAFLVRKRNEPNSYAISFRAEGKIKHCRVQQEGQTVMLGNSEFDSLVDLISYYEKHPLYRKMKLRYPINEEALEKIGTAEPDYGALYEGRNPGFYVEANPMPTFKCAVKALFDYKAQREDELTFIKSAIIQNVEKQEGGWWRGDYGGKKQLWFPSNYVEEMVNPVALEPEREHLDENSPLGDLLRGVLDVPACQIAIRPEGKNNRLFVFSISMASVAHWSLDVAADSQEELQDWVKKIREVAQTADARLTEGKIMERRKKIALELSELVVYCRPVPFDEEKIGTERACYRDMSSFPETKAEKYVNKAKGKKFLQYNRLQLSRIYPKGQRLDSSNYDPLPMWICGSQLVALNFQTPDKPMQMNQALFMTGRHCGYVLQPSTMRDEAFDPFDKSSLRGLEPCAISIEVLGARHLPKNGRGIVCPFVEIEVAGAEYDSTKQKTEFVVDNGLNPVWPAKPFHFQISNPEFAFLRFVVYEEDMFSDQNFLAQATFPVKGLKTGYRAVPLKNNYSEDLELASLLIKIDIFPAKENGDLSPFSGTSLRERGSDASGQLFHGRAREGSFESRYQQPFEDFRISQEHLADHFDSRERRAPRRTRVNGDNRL
Method: as §1

[6] = tested on: GTP-binding proteins in HEK 293T cell lysates; assay: Proteomic LC-MS/MS analysis of HEK 293T cell lysate labeled with GTP probes; design: species or system human
Method: Under optimized conditions, HEK 293T cell lysates were labeled using the GTP photoaffinity probes. Peptide samples were prepared via the On-Beads enzymatic digestion method for proteomic study. Approximately 1 mg of proteins was labeled with 0.1 mM GTP probe and irradiated with 365-nm UV light for 30 min. To the solution were added freshly prepared tris-(2-carboxyethyl)phosphine (TCEP) until its concentration reached 1 mM, and a CuAAC reaction mixture to reach a final concentration of 1 mM CuSO4, 0.1 mM tris[(1-benzyl-1H-1,2,3-triazol-4-yl)methyl]amine (TBTA), and 0.5 mM biotin-PEG3-azide (for GTP-O probe labeled samples), or 0.5 mM biotin-DADPS-azide (for GTP-N probe labeled samples). The mixture was vortexed at room temperature for 2 hours and then precipitated in ice-cold methanol overnight.
The precipitated proteins were dissolved in 100 μL 4% SDS buffer (4% SDS, 150 mM NaCl, 50 mM HEPES, pH=7.4), and diluted with 900 μL SDS-free HEPES buffer (150 mM NaCl, 50 mM HEPES, pH=7.4). High-capacity streptavidin beads (50 μL per sample) were washed three times with 20 times volume of wash buffer (150 mM sodium chloride, 50 mM HEPES, pH=7.4) before adding to the samples. After incubation on a rotary shaker at room temperature for 2 hours, non-specifically bound proteins were washed away in a centrifugal filtration column using 1× PBS containing 1% SDS, 10× PBS, 1× PBS, water, and 50 mM ammonium bicarbonate solution with 8 M urea, each wash using 1 mL of solution for five times. The beads were transferred to a centrifuge tube using 50 mM ammonium bicarbonate solution containing 8 M urea and resuspended with 500 μL of this solution. The disulfide bonds were reduced by adding 20 mM TCEP and incubating at 37° C. for 1 hour, and then alkylated with 50 mM iodacetamide at room temperature in the dark for 30 minutes. After centrifugation at 3000 rpm for 2 minutes, the supernatant was gently removed. The beads were washed with 25 mM ammonium bicarbonate three times, resuspended in 100 μL 25 mM ammonium bicarbonate, and incubated with 1 μg of MS-grade trypsin (1 μg/μL) at 37° C. for 18 hrs.
The beads were washed with 200 μL of 25 mM ammonium bicarbonate solution, then centrifuged at 12000 rpm for 2 minutes to collect the supernatant. The procedure was repeated 6 times, and the supernatants were combined to obtain sample 1 (peptides without probe modification). For GTP-O probe labeled samples, the beads were resuspended in 200 μL of 70% acetonitrile solution containing 1% trifluoroacetic acid, vortexed for 5 minutes, then centrifuged at 12000 rpm for 2 minutes to collect the supernatant. The procedure was repeated 5 times, and the supernatants were combined to obtain sample 2 (containing probe-modified peptides). For GTP-N probe labeled samples, the beads were resuspended in 100 μL of 10% formic acid, incubated on a rotary shaker at room temperature for 30 minutes, then centrifuged at 12000 rpm for 2 minutes to collect the supernatant. The procedure was repeated 3 times, and the supernatants were combined. Trifluoroacetic acid was added to a final concentration of 1%, and incubated at 37° C. for 30 minutes to obtain sample 2. The peptide solutions were dried with a centrifugal concentrator and desalted using C18 tips, then frozen at −80° C. until LC-MS/MS detection. Samples were dissolved in 20 μL of pure water, 4 μL of sample 1 and 8 μL of sample 2 were injected for analysis.
An EASY-nLC 1200 liquid chromatography coupled with a Q-Exactive Orbitrap mass spectrometer was employed for LC-MS/MS analysis. A homemade C18 capillary column (inner diameter 75 μm, column length 18 cm) packed with Reprosil-Pur120 C18-AQ (Dr. maisch, particle size […]) was utilized as the separation column. The precolumn (inner diameter 150 μm, column length 4 cm) was packed with Reprosil-Pur120 C18-AQ (Dr. maisch, particle size 5 μm,). The mobile phase A was 0.1% formic acid, while mobile phase B was 0.1% formic acid in 80% acetonitrile, and the flow rate was 300 nL/min. […]

[7] = three biological replicates, 0.1 mM probe, control probe = GTP-ctrl probe

SMILES: Nc1ncnc2c1ncn2[C@@H]1O[C@H](COP(=O)(O)O)[C@@H](O)[C@H]1O [AMP, reference compound]
competition effect on ATP-N probe labeling [1]: not significant

SMILES: Nc1ncnc2c1ncn2[C@@H]1O[C@H](COP(=O)(O)OP(=O)(O)OP(=O)(O)O)[C@@H](O)[C@H]1O [ATP, adenosine triphosphate]
competition effect on probe labeling (fluorescence of labeled bands) [2]: non-specific competition

protein intensity of ACTR2 in competition groups [3]: overall decreased protein intensities
protein intensity of ACTR3 in competition groups [4]: overall decreased protein intensities
protein intensity of PLCG1 in competition groups [5]: overall decreased protein intensities
SMILES: O=c1cc(CN2CCOCC2)occ1OCCCCCSc1ccnc2cc(C(F)(F)F)ccc12 [EHT 1864]

SMILES: Nc1nc2c(ncn2[C@@H]2O[C@H](COP(=O)([O-])[O-])[C@@H](O)[C@H]2O)c(=O)[nH]1.[Na+].[Na+] [GMP, guanosine 5′-monophosphate disodium salt]
competition effect on probe labeling (fluorescence of labeled bands) [2]: non-specific competition

SMILES: Nc1nc2c(ncn2[C@@H]2O[C@H](COP(=O)(O)OP(=O)(O)OP(=O)(O)O)[C@@H](O)[C@H]2O)c(=O)[nH]1 [GTP, guanosine triphosphate]
competition effect on probe labeling (fluorescence of labeled bands) [2]: significantly decrease the fluorescence intensity of several labeled proteins bands

SMILES: C#CCCC1(CCOP(=O)(O)OP(=O)(O)OP(=O)(O)OC[C@H]2O[C@@H](n3cnc4c(=O)[nH]c(N)nc43)C(O)[C@H]2O)N=N1 (stereo partly shown) [GTP-O probe]
probe-modified sites on labeled proteins ([6]; LC-MS/MS of sample 2 (probe-modified peptides)): not detected
GTP-binding proteins identified [6, 7]: 95
total proteins identified [6, 7]: 1808
